Laboratory results: patent US20080182806A1, “USE OF ACETYLATED OR ESTERIFICATED AZACYTIDINE, DECITABINE, OR OTHER NUCLEOSIDE ANALOGS AS ORAL AGENTS FOR THE TREATMENT OF TUMORS OR OTHER DYSPLASTIC SYNDROMES SENSITIVE TO HYPOMETHYLATING AGENTS” (Nevada Cancer Institute, priority 2007, published 2008)
One block for each compound: values may come before it.

Experiments:
global DNA methylation = test: Global DNA methylation in mouse tissues (Epigentek Methylamp Global DNA Methylation Quantification Kit); format: in vivo, mice; settings: for effect on global DNA methylation in the kidneys after 48 hours / reduction in global DNA methylation in the kidneys: 38 mg/kg TAC p.o. or 25 mg/kg ACT i.v.; for reduction in global DNA methylation in the kidneys: within 24 hours
Protocol: The pharmacodynamic effect of TAC and ACT was determined at 24 and 48 hours following drug administration after the female C57/BL6 mice were euthanized, their tissues rapidly harvested, snap-frozen in liquid nitrogen, and stored at −80° C. The effect on methylation was determined by using the Epigentek Methylamp™ Global DNA Methylation Quantification Kit. Isolated genomic DNA from mouse tissues 24 or 48 hours after treatment with 25 mg/kg ACT i.v. and 38 mg/kg TAC p.o., methylation status was determined using 100 ng of each gDNA sample.

[1] = test system: myelodysplastic syndromes; settings: 75 mg/m^2 subcutaneously daily for 7 days every 4 weeks, cited from earlier work
[2] = Pharmacokinetics and metabolism of TAC in mice (plasma LC/MS/MS); format: in vivo; settings: female, C57/BL6, mouse
Protocol: The title product and its active metabolite azacytidine (ACT) were then subjected to LC/MS/MS analysis using the following protocol. Stock solutions were prepared by weighing out 5-10 mg of TAC which was dissolves in methanol to a final concentration of about 0.5 mg/ml. The solution was labeled as “TAC Stock.” 2-3 mg of ACT were then weighed and dissolved in methanol to a final concentration of about 0.2 mg/ml. The solution was labeled as “ACT Stock.” Finally, the TAC and ACT stocks were diluted to a concentration of about 50 μg/ml in methanol, and labeled as “ACT/TAC Stock.” All solutions were stored at −20° C. […]
Samples were then initially prepared as follows. A measured aliquot of the acetonitrile extracted plasma sample was removed and placed into a 10×75 mm disposable glass test tube, followed by evaporating liquid down to approximately 50 μl under nitrogen at 37° C., diluting with 1 ml 2% phosphoric acid, and vortexing for 10 seconds at 3,000 rpm.
The samples were then analyzed by the SPE, HPLC and MS/MS methods. […]
Individual concentration-time data were analyzed using noncompartmental methods using WinNonlin Professional (Pharsight, Mountain View, Calif.). […] The terminal rate constant (λz) is determined from the slope of the terminal phase of the plasma concentration-time curve using uniform weight. The terminal half-life (T1/2) was calculated as 0.693 divided by λz. […]

Lymphoid leukemia L1210 = test: Survival of leukemic BDF1 mice inoculated i.p. with L1210 cells; format: in vivo
Protocol: Lymphoid leukemia L1210 was carried in BDF1 mice by weekly i.p. passages. Ascites fluid was aspirated from a donor mouse and sampled, and an aliquot was carefully diluted and counted in a hemocytometer. The original suspension of cells was then diluted appropriately in […] medium to 1×10^6 cells/ml. and injected i.p. (1×10^5 cells/0.1 ml/mouse) into recipient BDF1 mice.
A daily oral administration injection of TAC (38 mg/kg) diluted in PBS was given to leukemic BDF1 mice by oral gavage starting 24 hours from the inoculation of L1210 cells for a total of 5 days. A group of untreated leukemic mice of the same strain, sex, age, and weight served as controls.

[3] = test system: myelodysplastic syndromes; settings: 15 mg/m^2 intravenously over 4 hours three times a day for 3 days; cited from earlier work

- half-life ([2]; iv, 25 mg/kg, azacytidine administered i.v., mice plasma): 4 to 5 h
SMILES: Nc1ncn([C@@H]2O[C@H](CO)[C@@H](O)[C@H]2O)c(=O)n1 [ACT, 4-amino-1-β-D-ribofuranosyl-1,3,5-triazin-2(1H)-one]
- effect on global DNA methylation in the kidneys after 48 hours (global DNA methylation): subsided
- reduction in global DNA methylation in the kidneys (global DNA methylation): 50%
- mean time to response [1]: six
- response ([1]; higher-risk groups): 61%
- response rate ([1]; lower-risk patients with refractory anemia): 60%

SMILES: CC(=O)OC[C@H]1O[C@@H](n2cnc(N)nc2=O)[C@H](OC(C)=O)[C@@H]1OC(C)=O [TAC, 2′,3′,5′-triacetyl-5-azacytidine]
- effect on global DNA methylation in the kidneys after 48 hours (global DNA methylation): subsided
- reduction in global DNA methylation in the kidneys (global DNA methylation): 50%
- further decrease in methylation in spleen compared to untreated tissue (global DNA methylation; spleen, later time point, oral TAC 38 mg/kg): 40%
- median survival time (Lymphoid leukemia L1210; TAC 38 mg/kg daily by oral gavage for 5 days, starting 24 hours after L1210 inoculation): 14 days
- increased lifespan (Lymphoid leukemia L1210; TAC 38 mg/kg daily oral for 5 days versus untreated control group): 55%
- concentration at 4 h ([2]; plasma, by 4 hours after oral administration of 38 mg/kg TAC, read-out: TAC plasma concentration (below the limit of detection)): < 30 ng/mL

SMILES: Nc1ncn([C@H]2C[C@H](O)[C@@H](CO)O2)c(=O)n1 [decitabine, 4-amino-1-(2-deoxy-b-D-erythro-pentofuranosyl)-1,3,5-triazin-2(1H)-one]
- overall response rate [3]: 49%
